From patent publication US8604040B2 (priority 2010, dated 2013)
Where two headings read alike, the source gives them in different places. Marks after values point to notes of the source that are not given here.

Experiment: log P by HPLC (EEC Directive 79/831 Annex V.A8)
Type: physicochemical
[1] = [b] LC-MS, acidic range, pH 2.7, 0.1% aqueous formic acid and acetonitrile
[2] = [c] LC-MS, neutral range, pH 7.8, 0.001 molar aqueous ammonium hydrogencarbonate and acetonitrile
[3] = [a] HPLC, acidic range, pH 2.3, 0.1% aqueous phosphoric acid and acetonitrile
[4] = HPLC, pH 2.7, given in the preparation examples, read-out: logP (pH2.7)

Cc1cc(C(F)(F)F)nn1CC(=O)N1CCN(c2cccc(C(=O)NCc3cccs3)n2)CC1 [Example 67]
log P [1]: 2.92 | log P [2]: 2.93

Cc1cc(C(F)(F)F)nn1CC(=O)N1CCC(c2cccc(C(=O)NCc3ccc(Cl)cc3Cl)n2)CC1 [Example 21]
log P [1]: 4.1 | log P [2]: 4

Cc1cccnc1COC(=O)c1cccc(C2CCN(C(=O)Cn3nc(C(F)F)cc3C(F)F)CC2)n1 [Example 108]
log P [1]: 2.14^[b]

Cc1cc(C(F)(F)F)nn1CC(=O)N1CCC(c2cccc(C(=O)Oc3cccc4ccccc34)n2)CC1 [Example 51]
log P [1]: 3.97^[b]

Cc1cc(C(F)(F)F)nn1CC(=O)N1CCC(c2cccc(C(=O)OC(C)c3ccccc3Cl)n2)CC1 (centres unmarked) [Example 32]
log P [1]: 4.12^[b]

CN(Cc1ccccc1Br)C(=O)c1cccc(C2CCN(C(=O)Cn3nc(C(F)F)cc3C(F)F)CC2)n1 [Example 1]
log P [1]: 3.32 | log P [2]: 3.37

CCCCCCCNC(=O)c1cccc(C2CCN(C(=O)Cn3nc(C(F)F)cc3C(F)F)CC2)n1 [Example 85]
log P [1]: 3.96 | log P [2]: 4.05

Cc1cc(C(F)(F)F)nn1CC(=O)N1CCC(c2cccc(C(=O)Sc3cccs3)n2)CC1 [Example 63]
log P [1]: 3.85 | log P [2]: 3.88

O=C(NCc1ccc(Cl)cc1Cl)c1cccc(N2CCN(C(=O)Cn3nc(C(F)F)cc3C(F)F)CC2)n1 [Example 144]
log P [3]: 3.68 | log P [2]: 3.7

CCCCCCCNC(=O)c1cccc(C2CCN(C(=O)Cn3nc(C(F)(F)F)cc3C)CC2)n1 [Example 20]
log P [1]: 4.25 | log P [2]: 4.24

Cc1cc(C(F)(F)F)nn1CC(=O)N1CCC(c2cccc(C(=O)Oc3ccc4ccccc4c3)n2)CC1 [Example 52]
log P [1]: 3.9^[b]

Cc1cc(C(F)(F)F)nn1CC(=O)N1CCC(c2cccc(C(=O)Nc3cccc4ccccc34)n2)CC1 [Example 29]
log P [1]: 3.94

Cc1cc(C(F)(F)F)nn1CC(=O)N1CCC(c2cccc(C(=O)NCc3ccccc3Cl)n2)CC1 [Example 23]
log P [1]: 3.49 | log P [2]: 3.52

Cc1cc(C(F)(F)F)nn1CC(=O)N1CCC(c2cccc(C(=O)Sc3ccccc3)n2)CC1 [Example 62]
log P [1]: 3.95^[b]; 3.95^[c] | log P [2]: 3.95^[b]; 3.95^[c]

Cc1cc(C(F)(F)F)nn1CC(=O)N1CCC(c2cccc(C(=O)N(C)Cc3ccccn3)n2)CC1 [Example 14]
log P [2]: 2.23^[c]

Cc1ccccc1CSC(=O)c1cccc(C2CCN(C(=O)Cn3nc(C(F)F)cc3C(F)F)CC2)n1 [Example 133]
log P [3]: 4.39 | log P [2]: 4.41

CN(Cc1ccccc1Cl)C(=O)c1cccc(N2CCN(C(=O)Cn3nc(C(F)F)cc3C(F)F)CC2)n1 [Example 148]
log P [3]: 3.22 | log P [2]: 3.25

O=C(SCc1c(F)cccc1F)c1cccc(N2CCN(C(=O)Cn3nc(C(F)F)cc3C(F)F)CC2)n1 [Example 125]
log P [3]: 4.11 | log P [2]: 4.14

Cc1cc(C(F)(F)F)nn1CC(=O)N1CCC(c2cccc(C(=O)Nc3cccc4cccnc34)n2)CC1 [Example 31]
log P [1]: 4.02 | log P [2]: 4.04

Cc1ccsc1CNC(=O)c1cccc(C2CCN(C(=O)Cn3nc(C(F)F)cc3C(F)F)CC2)n1 [Example 92]
log P [1]: 3.19 | log P [2]: 3.18

CC(C)(C)OC(=O)N1CCN(c2cccc(Br)n2)CC1 [tert-Butyl 4-(6-bromopyridin-2-yl)piperazine-1-carboxylate]
chromatographic logP [4]: 4.08

C=CCCCCOC(=O)c1cccc(C2CCN(C(=O)Cn3nc(C(F)F)cc3C(F)F)CC2)n1 [Example 101]
log P [1]: 3.8^[b]

CN(C(=O)c1cccc(C2CCN(C(=O)OC(C)(C)C)CC2)n1)C1CCCc2ccccc21 (centres unmarked) [tert-butyl 4-{6-[methyl(1,2,3,4-tetrahydronaphthalen-1-yl)carbamoyl]pyridin-2-yl}piperidine-1-carboxylate]
chromatographic logP [4]: 5.09

CCOC(=O)c1cccc(C2CCN(C(=O)Cn3nc(C(F)(F)F)cc3C)CC2)n1 [Example 134]
log P [1]: 2.74^[b]

Cc1cc(C(F)(F)F)nn1CC(=O)N1CCC(c2cccc(C(=O)OCC3CCCCC3)n2)CC1 [Example 38]
log P [1]: 4.38^[b]

Cc1cc(C(F)(F)F)nn1CC(=O)N1CCC(c2cccc(C(=O)NCc3ccccc3Br)n2)CC1 [Example 5]
log P [1]: 3.59^[b]; 3.59^[c] | log P [2]: 3.59^[b]; 3.59^[c]

Cc1cc(C(F)(F)F)nn1CC(=O)N1CCC(c2cccc(C(=O)SCc3ccc(Cl)cc3Cl)n2)CC1 [Example 55]
log P [1]: 5.17 | log P [2]: 5.21

COC1CCCCC1OC(=O)c1cccc(C2CCN(C(=O)Cn3nc(C(F)F)cc3C(F)F)CC2)n1 (centres unmarked) [Example 97]
log P [1]: 4.17^[b]

C=CCCCCOC(=O)c1cccc(C2CCN(C(=O)Cn3nc(C(F)(F)F)cc3C)CC2)n1 [Example 39]
log P [1]: 3.86^[b]

O=C(OC1C=CCCC1)c1cccc(C2CCN(C(=O)Cn3nc(C(F)F)cc3C(F)F)CC2)n1 (centres unmarked) [Example 98]
log P [1]: 3.87^[b]

Cc1cc(C(F)(F)F)nn1CC(=O)N1CCC(c2cccc(C(=O)Nc3ccc4ccccc4c3)n2)CC1 [Example 30]
log P [1]: 4.09 | log P [2]: 4.11

CCOC(=O)c1cccc(N2CCN(C(=O)Cn3nc(C(F)F)cc3C(F)F)CC2)n1 [Ethyl 6-(4-{[3,5-bis(difluoromethyl)-1H-pyrazol-1-yl]acetyl}piperazin-1-yl)pyridine-2-carboxylate]
chromatographic logP [4]: 2.71

Cc1cc(C(F)(F)F)nn1CC(=O)N1CCC(c2cccc(C(=O)SCc3ccccc3Cl)n2)CC1 [Example 57]
log P [1]: 4.61^[b]; 4.61^[c] | log P [2]: 4.61^[b]; 4.61^[c]

Cc1cc(C(F)(F)F)nn1CC(=O)N1CCC(c2cccc(C(=O)OCc3ccccc3Cl)n2)CC1 [Example 46]
log P [1]: 3.84^[b]

Cc1ccccc1CSC(=O)c1cccc(C2CCN(C(=O)Cn3nc(C(F)(F)F)cc3C)CC2)n1 [Example 56]
log P [1]: 4.57 | log P [2]: 4.58

Cc1cc(C(F)(F)F)nn1CC(=O)N1CCC(c2cccc(C(=O)OCc3ccccc3OC(F)(F)F)n2)CC1 [Example 8]
log P [1]: 4.06^[b]

Cc1cc(C(F)(F)F)nn1CC(=O)N1CCC(c2cccc(C(=O)Sc3ccc4ccccc4c3)n2)CC1 [Example 61]
log P [1]: 4.57 | log P [2]: 4.61

Cc1cc(C(F)(F)F)nn1CC(=O)N1CCC(c2cccc(C(=O)OCc3c(F)cccc3F)n2)CC1 [Example 48]
log P [1]: 3.51^[b]

Cc1cc(C(F)(F)F)nn1CC(=O)N1CCN(c2cccc(C(=O)OCc3c(F)cccc3F)n2)CC1 [Example 74]
log P [1]: 3.54 | log P [2]: 3.55

O=C(NCc1ccc(F)cc1F)c1cccc(C2CCN(C(=O)Cn3nc(C(F)F)cc3C(F)F)CC2)n1 [Example 87]
log P [1]: 3.22 | log P [2]: 3.24

Cc1cc(C(F)(F)F)nn1CC(=O)N1CCC(c2cccc(C(=O)NCc3cccs3)n2)CC1 [Example 26]
log P [1]: 3.15 | log P [2]: 3.1

Cc1cc(C(F)(F)F)nn1CC(=O)N1CCC(c2cccc(C(=O)N(C)c3ccccc3Cl)n2)CC1 [Example 10]
log P [1]: 3.18 | log P [2]: 3.2

Cc1cc(C(F)(F)F)nn1CC(=O)N1CCC(c2cccc(C(=O)OCCCC(F)(F)F)n2)CC1 [Example 6]
log P [1]: 3.37^[b]

CCOC(=O)c1cccc(C2=CCN(C(=O)OC(C)(C)C)CC2)n1 [1′-tert-butyl 6-ethyl-3′,6′-dihydro-2,4′-bipyridine-1′,6(2′H)-dicarboxylate]
logP (pH2.7) (pH 2.7, given in the preparation examples): 3.48

Cc1cc(C(F)(F)F)nn1CC(=O)N1CCC(c2cccc(C(=O)OC3CCCCC3F)n2)CC1 (centres unmarked) [Example 116]
log P [1]: 3.43^[b]

CN(C(=O)c1cccc(C2CCN(C(=O)Cn3nc(C(F)F)cc3C(F)F)CC2)n1)C1CCCCC1 [Example 78]
log P [1]: 3.02 | log P [2]: 3.08

Cc1cc(C(F)(F)F)nn1CC(=O)N1CCC(c2cccc(C(=O)OCc3ccccc3F)n2)CC1 [Example 47]
log P [1]: 3.52^[b]

Cc1cc(C(F)(F)F)nn1CC(=O)N1CCC(c2cccc(C(=O)N(C)C3CCCc4ccccc43)n2)CC1 (centres unmarked) [Example 12, N-Methyl-6-(1-{[5-methyl-3-(trifluoromethyl)-1H-pyrazol-1-yl]acetyl}piperidin-4-yl)-N-(1,2,3,4-tetrahydronaphthalen-1-yl)pyridine-2-carboxamide]
chromatographic logP (HPLC (LC-MS), [b] LC-MS, acidic range, pH 2.7, 0.1% aqueous formic acid and acetonitrile, read-out: log P): 3.61 | chromatographic logP [4]: 3.61

Cc1cc(C(F)(F)F)nn1CC(=O)N1CCC(c2cccc(C(=O)Sc3cccc4ccccc34)n2)CC1 [Example 60]
log P [1]: 4.41 | log P [2]: 4.46

Cc1cc(C(F)(F)F)nn1CC(=O)N1CCN(c2cccc(C(=O)NCc3ccccc3Cl)n2)CC1 [Example 65]
log P [1]: 3.34 | log P [2]: 3.36

Cc1cc(C(F)(F)F)nn1CC(=O)N1CCC(c2cccc(C(=O)OC3CCCCC3)n2)CC1 [Example 34]
log P [1]: 3.9^[b]

CN(Cc1ccccn1)C(=O)c1cccc(C2CCN(C(=O)Cn3nc(C(F)F)cc3C(F)F)CC2)n1 [Example 80]
log P [1]: 1.81 | log P [2]: 2.18

Cc1cc(C(F)(F)F)nn1CC(=O)N1CCN(c2cccc(C(=O)OCc3ccccc3Cl)n2)CC1 [Example 72]
log P [1]: 3.89 | log P [2]: 3.9

O=C(OC1CCCc2ccccc21)c1cccc(C2CCN(C(=O)Cn3nc(C(F)F)cc3C(F)F)CC2)n1 (centres unmarked) [Example 100]
log P [1]: 4.07^[b]

O=C(NCc1ccccn1)c1cccc(C2CCN(C(=O)Cn3nc(C(F)F)cc3C(F)F)CC2)n1 [Example 90]
log P [1]: 1.83 | log P [2]: 2.37

O=C(OC1CCCCC1F)c1cccc(C2CCN(C(=O)Cn3nc(C(F)F)cc3C(F)F)CC2)n1 (centres unmarked) [Example 115]
log P [1]: 3.37^[b]

O=C(NCc1ccccc1Br)c1cccc(C2CCN(C(=O)Cn3nc(C(F)F)cc3C(F)F)CC2)n1 [Example 4]
log P [1]: 3.44 | log P [2]: 3.47

O=C(OCc1ccccc1OC(F)(F)F)c1cccc(C2CCN(C(=O)Cn3nc(C(F)F)cc3C(F)F)CC2)n1 [Example 9]
log P [1]: 3.89^[b]

O=C(SCc1ccccc1Cl)c1cccc(N2CCN(C(=O)Cn3nc(C(F)F)cc3C(F)F)CC2)n1 [Example 127]
log P [3]: 4.42 | log P [2]: 4.44
